# pIC50: −log10 of the molar value.
# Experiments:
# KRAS G12C = KRAS G12C (Homo sapiens, UniProt P01116, G12C); assay: GDP-GTP exchange assay, KRAS G12C (bodipy-GDP/GppNHp, SOS1); type: biochemical; conditions: bodipy-loaded KRAS G12C 2.5 nM, 2 hours pre-incubation, 2 hours exchange with GppNHp and SOS1; read-out: G12C_exchange (KRAS_G12C exchange assay IC50)
# Description: (§1) The inhibitor potency of the exemplified compounds was determined in a fluorescence based guanine nucleotide exchange assay, which measures the exchange of bodipy-GDP (fluorescently labeled GDP) for GppNHp (Non-hydrolyzable GTP analog) to generate the active state of KRAS in the presence of SOS1 (guanine nucleotide exchange factor). Inhibitors were serially diluted in DMSO and a volume of 0.1 μL was transferred to the wells of a black low volume 384-well plate. 5 μL/well volume of bodipy-loaded KRAS G12C diluted to 5 nM in assay buffer (25 mM Hepes pH 7.5, 50 mM NaCl, 10 mM MgCl2 and 0.01% Brij-35) was added to the plate and pre-incubated with inhibitor for 2 hours at ambient temperature. Appropriate controls (enzyme with no inhibitor or with a G12C inhibitor (AMG-510)) were included on the plate. The exchange was initiated by the addition of a 5 μL/well volume containing 1 mM GppNHp and 300 nM SOS1 in assay buffer. The 10 μL/well reaction concentration of the bodipy-loaded KRAS G12C, GppNHp, and SOS1 were 2.5 nM, 500 uM, and 150 nM, respectively. The reaction plates were incubated at ambient temperature for 2 hours, a time estimated for complete GDP-GTP exchange in the absence of inhibitor. For the KRAS G12D and G12V mutants, similar guanine nucleotide exchange assays were used with 2.5 nM as final concentration for the bodipy loaded KRAS proteins and with 4 hours and 3 hours incubation after adding GppNHp-SOS1 mixture for G12D and G12V respectively. A cyclic peptide described to selectively bind G12D mutant (Sakamoto et al., BBRC 484.3 (2017), 605-611) or internal compounds with confirmed binding were used as positive controls in the assay plates. Fluorescence intensities were measured on a PheraStar plate reader instrument (BMG Labtech) with excitation at 485 nm and emission at 520 nm.
# Either GraphPad prism or XLfit was used to analyze the data. The IC50 values were derived by fitting the data to a four parameter logistic equation producing a sigmoidal dose-response curve with a variable Hill coefficient. Prism equation: Y=Bottom+(Top−Bottom)/(1+10^((Log IC50−X)*Hill slope)); XLfit equation: Y=(A+((B−A)/(1+((X/C)^D)))) where X is the logarithm of inhibitor concentration and Y is the response.
# [1] = tested on: MIA PaCa-2 (KRAS G12C) cells; assay: Cellular pERK HTRF assay, KRAS_G12C pERK; type: cell-based; conditions: Homo sapiens, 4 hours incubation, HTRF phospho-ERK 1/2, read-out: G12C_pERK (KRAS_G12C pERK assay IC50)
# Description: MIA PaCa-2 (KRAS G12C; ATCC® CRL-1420), A427 (KRAS G12D; ATCC® HTB53), HPAF-II (KRAS G12D; ATCC® CRL-1997) and NCI-H838 (KRAS WT; ATCC® CRL-5844) cells are purchased from ATCC and maintained in RPMI 1640 media supplemented with 10% FBS (Gibco/Life Technologies). The cells are plated at 5000 cells per well (8 uL) into Greiner 384-well low volume, flat-bottom, tissue culture treated white plates and incubated overnight at 37° C., 5% CO2. The next morning, test compound stock solutions are diluted in media at 3× the final concentration, and 4 uL are added to the cells. The plate is mixed by gentle rotation for 30 seconds (250 rpm) at room temperature. The cells are incubated with the KRAS G12C and G12D compounds for 4 hours or 2 hours respectively at 37° C., 5% CO2.
# 4 uL of 4× lysis buffer with blocking reagent (1:25) (Cisbio) are added to each well and plates are rotated gently (300 rpm) for 30 minutes at room temperature. 4 uL per well of Cisbio anti Phospho-ERK 1/2 d2 is mixed with anti Phospho-ERK 1/2 Cryptate (1:1) are added to each well, mixed by rotation and incubated overnight in the dark at room temperature. Plates are read on the Pherastar plate reader at 665 nm and 620 nm wavelengths. IC50 determination is performed by fitting the curve of inhibitor percent inhibition versus the log of the inhibitor concentration using the GraphPad Prism 7 software.
# KRAS G12D = KRAS G12D (Homo sapiens, UniProt P01116, G12D); assay: GDP-GTP exchange assay, KRAS G12D (bodipy-GDP/GppNHp, SOS1); type: biochemical; conditions: bodipy-loaded KRAS G12D 2.5 nM, 4 hours incubation after GppNHp-SOS1; read-out: G12D_exchange (KRAS_G12D exchange assay IC50)
# Description: as §1, with “For the KRAS G12D and G12V mutants, similar guanine nucleotide exchange assays were used with 2.5 nM as final concentration for the bodipy loaded KRAS proteins and with 4 hours and 3 hours incubation after adding GppNHp-SOS1 mixture for G12D and G12V respectively. A cyclic peptide described to selectively bind G12D mutant (Sakamoto et al., BBRC 484.3 (2017), 605-611) or internal compounds with confirmed binding were used as positive controls in the assay plates.” left out, “nm. […]” for “nm.”
# KRAS G12C, sequence (P01116 1-188 isoform P01116-2 G12C): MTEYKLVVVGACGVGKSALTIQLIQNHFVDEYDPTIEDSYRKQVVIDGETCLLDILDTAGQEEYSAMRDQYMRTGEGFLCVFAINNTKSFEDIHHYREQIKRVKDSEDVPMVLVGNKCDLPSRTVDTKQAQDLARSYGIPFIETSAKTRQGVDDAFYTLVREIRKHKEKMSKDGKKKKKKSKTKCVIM
# KRAS G12D, sequence (P01116 1-188 isoform P01116-2 G12D): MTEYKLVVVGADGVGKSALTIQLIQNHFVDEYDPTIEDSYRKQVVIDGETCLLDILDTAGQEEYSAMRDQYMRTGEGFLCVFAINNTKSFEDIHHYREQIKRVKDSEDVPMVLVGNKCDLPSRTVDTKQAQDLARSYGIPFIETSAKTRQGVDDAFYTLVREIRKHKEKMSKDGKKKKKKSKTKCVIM
pIC50 (KRAS G12C),pIC50 [1],pIC50 (KRAS G12D),Structure (SMILES)
≥ 7.00,≥ 7.00,,"C=CC(=O)N1CC[C@H](n2nnc3c(N4CC(C)(N(C)C)C4)nc4c(=O)n(-c5cccc(Cl)c5C)c(C(F)(F)F)cc4c32)C[C@H]1CC#N [Example 11, 2-((2S,4S)-1-acryloyl-4-(7-(3-chloro-2-methylphenyl)-4-(3-(dimethylamino)-3-methylazetidin-1-yl)-6-oxo-8-(trifluoromethyl)-6,7-dihydro-1H-[1,2,3]triazolo[4,5-c][1,7]naphthyridin-1-yl)piperidin-2-yl)acetonitrile]"
≥ 7.00,≥ 7.00,,"C=CC(=O)N1CCC(n2cnc3c(-c4cccnc4C)nc4c(=O)n(-c5cccc6ccccc56)c(C(F)(F)F)cc4c32)C[C@H]1CC#N (stereo partly drawn) [Example 7, 2-((2S)-1-acryloyl-4-(4-(2-methylpyridin-3-yl)-7-(naphthalen-1-yl)-6-oxo-8-(trifluoromethyl)-6,7-dihydro-1H-imidazo[4,5-c][1,7]naphthyridin-1-yl)piperidin-2-yl)acetonitrile]"
≥ 7.00,≥ 7.00,,"CC#CC(=O)N1CC[C@H](n2cnc3c(O[C@@H](C)[C@@H]4CCCN4C)nc4c(=O)n(-c5cccc(Cl)c5C)c(C(F)(F)F)cc4c32)C[C@H]1CC#N [Example 9, 2-((2S,4S)-1-(but-2-ynoyl)-4-(7-(3-chloro-2-methylphenyl)-4-((S)-1-((S)-1-methylpyrrolidin-2-yl)ethoxy)-6-oxo-8-(trifluoromethyl)-6,7-dihydro-1H-imidazo[4,5-c][1,7]naphthyridin-1-yl)piperidin-2-yl)acetonitrile]"
≥ 7.00,5.30 to 6.00,,"C=CC(=O)N1CC[C@H](n2cnc3c(N4CC(N(C)C)C4)nc4c(=O)n(-c5cc(O)cc6ccccc56)ccc4c32)C[C@H]1CC#N [Example 1, 2-((2S,4S)-1-acryloyl-4-(4-(3-(dimethylamino)azetidin-1-yl)-7-(3-hydroxynaphthalen-1-yl)-6-oxo-6,7-dihydro-1H-imidazo[4,5-c][1,7]naphthyridin-1-yl)piperidin-2-yl)acetonitrile]"
,,6.00 to 7.00,"CNCCc1nc2c(N3CC(N(C)C)C3)nc3c(=O)n(-c4cc(O)cc5ccccc45)ccc3c2n1[C@H]1[C@H]2CN[C@@H]1C2 (racemic) [Example 3, 1-((1R,4R,5S)-2-azabicyclo[2.1.1]hexan-5-yl)-4-(3-(dimethylamino)azetidin-1-yl)-7-(3-hydroxynaphthalen-1-yl)-2-(2-(methylamino)ethyl)-1,7-dihydro-6H-imidazo[4,5-c][1,7]naphthyridin-6-one]"
≥ 7.00,6.00 to 7.00,,"C=C(F)C(=O)N1CC[C@H](n2cnc3c(O[C@@H](C)[C@@H]4CCCN4C)nc4c(=O)n(-c5cccc(Cl)c5C)c(C(F)(F)F)cc4c32)C[C@H]1CC#N [Example 10, 2-((2S,4S)-4-(7-(3-chloro-2-methylphenyl)-4-((S)-1-((S)-1-methylpyrrolidin-2-yl)ethoxy)-6-oxo-8-(trifluoromethyl)-6,7-dihydro-1H-imidazo[4,5-c][1,7]naphthyridin-1-yl)-1-(2-fluoroacryloyl)piperidin-2-yl)acetonitrile]"
≥ 7.00,5.30 to 6.00,,"C=CC(=O)N1CC[C@H](n2cnc3c(N4CC(N(C)C)C4)nc4c(c32)CCN(c2cc(O)cc3ccccc23)C4)C[C@H]1CC#N [Example 5, 2-((2S,4S)-1-acryloyl-4-(4-(3-(dimethylamino)azetidin-1-yl)-7-(3-hydroxynaphthalen-1-yl)-6,7,8,9-tetrahydro-1H-imidazo[4,5-c][1,7]naphthyridin-1-yl)piperidin-2-yl)acetonitrile]"
≥ 7.00,≥ 7.00,,"C=CC(=O)N1CC[C@H](n2cnc3c(O[C@@H](C)[C@@H]4CCCN4C)nc4c(=O)n(-c5cccc(Cl)c5C)c(C(F)(F)F)cc4c32)C[C@H]1CC#N [Example 8, 2-((2S,4S)-1-acryloyl-4-(7-(3-chloro-2-methylphenyl)-4-((S)-1-((S)-1-methylpyrrolidin-2-yl)ethoxy)-6-oxo-8-(trifluoromethyl)-6,7-dihydro-1H-imidazo[4,5-c][1,7]naphthyridin-1-yl)piperidin-2-yl)acetonitrile]"
≥ 7.00,≥ 7.00,,"C=CC(=O)N1CC[C@H](n2cnc3c(N4CC(N(C)C)C4)nc4c(=O)n(-c5cccc6ccccc56)c(C(F)(F)F)cc4c32)C[C@H]1CC#N [Example 6, 2-((2S,4S)-1-acryloyl-4-(4-(3-(dimethylamino)azetidin-1-yl)-7-(naphthalen-1-yl)-6-oxo-8-(trifluoromethyl)-6,7-dihydro-1H-imidazo[4,5-c][1,7]naphthyridin-1-yl)piperidin-2-yl)acetonitrile]"
≥ 7.00,≥ 7.00,,"Cc1c(Cl)cccc1-n1c(C(F)(F)F)cc2c(nc(N3CC(C)(N(C)C)C3)c3nnn([C@H]4CCN(C(=O)/C=C/CF)[C@H](CC#N)C4)c32)c1=O [Example 12, 2-((2S,4S)-4-(7-(3-chloro-2-methylphenyl)-4-(3-(dimethylamino)-3-methylazetidin-1-yl)-6-oxo-8-(trifluoromethyl)-6,7-dihydro-1H-[1,2,3]triazolo[4,5-c][1,7]naphthyridin-1-yl)-1-((E)-4-fluorobut-2-enoyl)piperidin-2-yl)acetonitrile]"
6.00 to 7.00,,,"C=CC(=O)N1CC[C@H](n2cnc3c(N4CC(N(C)C)C4)nc4c(c32)CCN(c2cccc3ccccc23)C4)C[C@H]1CC#N [Example 4, 2-((2S,4S)-1-acryloyl-4-(4-(3-(dimethylamino)azetidin-1-yl)-7-(naphthalen-1-yl)-6,7,8,9-tetrahydro-1H-imidazo[4,5-c][1,7]naphthyridin-1-yl)piperidin-2-yl)acetonitrile]"
≥ 7.00,5.30 to 6.00,,"CC#CC(=O)N1CC[C@H](n2cnc3c(N4CC(N(C)C)C4)nc4c(=O)n(-c5cc(O)cc6ccccc56)ccc4c32)C[C@H]1CC#N [Example 2, 2-((2S,4S)-1-(but-2-ynoyl)-4-(4-(3-(dimethylamino)azetidin-1-yl)-7-(3-hydroxynaphthalen-1-yl)-6-oxo-6,7-dihydro-1H-imidazo[4,5-c][1,7]naphthyridin-1-yl)piperidin-2-yl)acetonitrile]"

# Source: US12077539B2, “Imidazole and triazole KRAS inhibitors” (Incyte Corporation, priority 2021, dated 2024)
